According to ChEMBL document CHEMBL1201862, “PubChem BioAssay data set” (2004):
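Dose response: 5 concentrations. Exposure: 48 h. Format: 96-well plates. Endpoint: linear interpolation; highest concentration if not reached. GI50: concentration for 50% inhibition of growth.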 Activity calls are given as the source filed them. No stated cut-off is given here; in the data, active = GI50 up to about 1.1 µM and inactive = higher.

What was measured:
Test in all cases: NCI anticancer screen, dose series, 48 h
OVCAR-8 = test system: OVCAR-8
CAKI-1 = test system: CAKI-1
MDA-MB-435 = test system: MDA-MB-435
SF-268 = test system: SF-268
SNB-75 = test system: SNB-75
SN12C = test system: SN12C
NCI-H460 = test system: NCI-H460
SF-295 = test system: SF-295
U-251 = test system: U-251
HCC 2998 = test system: HCC 2998
HL-60 = test system: HL-60
UACC-62 = test system: UACC-62
PC-3 = test system: PC-3
TK-10 = test system: TK-10
MOLT-4 = test system: MOLT-4
SK-MEL-28 = test system: SK-MEL-28
SK-OV-3 = test system: SK-OV-3
IGROV-1 = test system: IGROV-1
SR = test system: SR

Structure (SMILES)	GI50 (OVCAR-8)	GI50 (CAKI-1)	GI50 (MDA-MB-435)	GI50 (SF-268)	GI50 (SNB-75)	GI50 (SN12C)	GI50 (NCI-H460)	GI50 (SF-295)	GI50 (U-251)	GI50 (HCC 2998)	GI50 (HL-60)	GI50 (UACC-62)	GI50 (PC-3)	GI50 (TK-10)	GI50 (MOLT-4)	GI50 (SK-MEL-28)	GI50 (SK-OV-3)	GI50 (IGROV-1)	GI50 (SR)
CCOC(=O)C1=C(C)NC(C)=C(C(=O)OCC)C1c1ccc(Cl)cc1	16.1 µM (inactive)	16.5 µM (inactive)	14.4 µM (inactive)	17.5 µM (inactive)	18.7 µM (inactive)	19.4 µM (inactive)	4.6 µM (inactive)	12.7 µM (inactive)	16.8 µM (inactive)	14.7 µM (inactive)	0.774 µM (active)	12.1 µM (inactive)	14.9 µM (inactive)	14.8 µM (inactive)	6.1 µM (inactive)	20.4 µM (inactive)	16.7 µM (inactive)	15.1 µM (inactive)	–
Cc1ccc2c(/C=C/c3ccc(N(C)C)cc3)ccnc2c1C	24.7 µM (inactive)	27.4 µM (inactive)	4.57 µM (inactive)	30.1 µM (inactive)	15.4 µM (inactive)	20.6 µM (inactive)	25.6 µM (inactive)	22.4 µM (inactive)	38.7 µM (inactive)	27.9 µM (inactive)	21.2 µM (inactive)	13.4 µM (inactive)	18.7 µM (inactive)	16.2 µM (inactive)	38.6 µM (inactive)	17.1 µM (inactive)	31.1 µM (inactive)	–	–
O=C(c1ccc(Cl)cc1)N(C(=O)N1CCC(c2ccccc2)CC1)c1ccccc1	33.8 µM (inactive)	54.1 µM (inactive)	25.8 µM (inactive)	82 µM (inactive)	1.83 µM (inactive)	99.5 µM (inactive)	–	31 µM (inactive)	39.5 µM (inactive)	–	17.1 µM (inactive)	31.8 µM (inactive)	6.4 µM (inactive)	30.7 µM (inactive)	21.8 µM (inactive)	45.2 µM (inactive)	> 100 µM (inactive)	17.9 µM (inactive)	–
COc1ccc(/C=N/n2c(Cc3ccccc3)n[nH]c2=O)cc1	> 100 µM (inactive)	> 100 µM (inactive)	> 100 µM (inactive)	42.3 µM (inactive)	> 100 µM (inactive)	> 100 µM (inactive)	> 100 µM (inactive)	39.8 µM (inactive)	37 µM (inactive)	> 100 µM (inactive)	–	> 100 µM (inactive)	> 100 µM (inactive)	–	> 100 µM (inactive)	> 100 µM (inactive)	> 100 µM (inactive)	–	–
Cc1ccc(N2C(=O)C3c4[nH]c5ccc(C)cc5c4C4CCC(C(C)(C)C)CC4C3C2=O)cc1 (stereo unspecified)	9.62 µM (inactive)	17.6 µM (inactive)	17.7 µM (inactive)	11.9 µM (inactive)	–	12.6 µM (inactive)	7.36 µM (inactive)	15.2 µM (inactive)	10.9 µM (inactive)	–	17.3 µM (inactive)	16.2 µM (inactive)	16.6 µM (inactive)	16.5 µM (inactive)	2.48 µM (inactive)	22.4 µM (inactive)	–	13.1 µM (inactive)	–
CC[N+]1(C)CCC(O)(c2ccc(Cl)c(Cl)c2)C(C(=O)c2ccc(Cl)c(Cl)c2)C1 (stereo unspecified)	> 10 µM (inactive)	> 10 µM (inactive)	–	> 10 µM (inactive)	> 10 µM (inactive)	> 10 µM (inactive)	> 10 µM (inactive)	> 10 µM (inactive)	> 10 µM (inactive)	> 10 µM (inactive)	> 10 µM (inactive)	–	> 10 µM (inactive)	> 10 µM (inactive)	> 10 µM (inactive)	> 10 µM (inactive)	> 10 µM (inactive)	> 10 µM (inactive)	> 10 µM (inactive)
C/C(=N/N(C=O)C[n+]1ccccc1)C(CN(CC(C)C)CC(C)C)C(=O)Nc1ccc(C)cc1C (stereo unspecified)	> 100 µM (inactive)	55.1 µM (inactive)	–	43 µM (inactive)	–	> 100 µM (inactive)	> 100 µM (inactive)	71.8 µM (inactive)	–	> 100 µM (inactive)	73.1 µM (inactive)	79.6 µM (inactive)	–	42.4 µM (inactive)	> 100 µM (inactive)	> 100 µM (inactive)	> 100 µM (inactive)	> 100 µM (inactive)	84.1 µM (inactive)
Nc1c(Cl)ncnc1NCC1(CO)CCC1	> 100 µM (inactive)	–	> 100 µM (inactive)	> 100 µM (inactive)	> 100 µM (inactive)	> 100 µM (inactive)	> 100 µM (inactive)	> 100 µM (inactive)	> 100 µM (inactive)	–	> 100 µM (inactive)	–	> 100 µM (inactive)	> 100 µM (inactive)	> 100 µM (inactive)	> 100 µM (inactive)	–	> 100 µM (inactive)	> 100 µM (inactive)
CN(/N=C\c1ccc2ccccc2c1)C1=NCCN1	30.3 µM (inactive)	10.3 µM (inactive)	15.6 µM (inactive)	27.5 µM (inactive)	10.6 µM (inactive)	–	12.5 µM (inactive)	14.4 µM (inactive)	18 µM (inactive)	16.2 µM (inactive)	10.4 µM (inactive)	18.3 µM (inactive)	–	13.2 µM (inactive)	14.7 µM (inactive)	13.6 µM (inactive)	35.8 µM (inactive)	19.5 µM (inactive)	17.3 µM (inactive)
COC(=O)CCN(CCC(=O)OC)C1CC1	> 100 µM (inactive)	–	> 100 µM (inactive)	> 100 µM (inactive)	> 100 µM (inactive)	> 100 µM (inactive)	> 100 µM (inactive)	> 100 µM (inactive)	> 100 µM (inactive)	> 100 µM (inactive)	> 100 µM (inactive)	> 100 µM (inactive)	–	> 100 µM (inactive)	> 100 µM (inactive)	> 100 µM (inactive)	> 100 µM (inactive)	> 100 µM (inactive)	> 100 µM (inactive)
CCOC(=O)C1=CN2C(=N[C@H]3CCCC[C@@H]32)NC1=O	> 100 µM (inactive)	> 100 µM (inactive)	> 100 µM (inactive)	> 100 µM (inactive)	> 100 µM (inactive)	> 100 µM (inactive)	> 100 µM (inactive)	> 100 µM (inactive)	> 100 µM (inactive)	> 100 µM (inactive)	> 100 µM (inactive)	> 100 µM (inactive)	> 100 µM (inactive)	> 100 µM (inactive)	> 100 µM (inactive)	> 100 µM (inactive)	> 100 µM (inactive)	> 100 µM (inactive)	–
Cc1ccc(C)c(NC(=O)C(=O)Nn2c(S)nc3ccccc3c2=O)c1	> 100 µM (inactive)	> 100 µM (inactive)	–	> 100 µM (inactive)	> 100 µM (inactive)	> 100 µM (inactive)	> 100 µM (inactive)	> 100 µM (inactive)	> 100 µM (inactive)	> 100 µM (inactive)	> 100 µM (inactive)	> 100 µM (inactive)	–	> 100 µM (inactive)	> 100 µM (inactive)	> 100 µM (inactive)	> 100 µM (inactive)	> 100 µM (inactive)	> 100 µM (inactive)
C(=C\c1cc[n+](CCc2ccccc2)cc1)/c1ccccc1	3.86 µM (inactive)	22.4 µM (inactive)	4.98 µM (inactive)	18.1 µM (inactive)	24 µM (inactive)	4.02 µM (inactive)	8.69 µM (inactive)	24.9 µM (inactive)	4.9 µM (inactive)	–	–	10.7 µM (inactive)	15.2 µM (inactive)	21.5 µM (inactive)	12.9 µM (inactive)	10.6 µM (inactive)	18.6 µM (inactive)	31.7 µM (inactive)	–
Cc1ccc(S(=O)(=O)Oc2nc3ccccc3nc2N(S(=O)(=O)c2ccc(C)cc2)S(=O)(=O)c2ccc(C)cc2)cc1	52.2 µM (inactive)	72.4 µM (inactive)	35.8 µM (inactive)	50.6 µM (inactive)	37.2 µM (inactive)	44 µM (inactive)	28.7 µM (inactive)	30.3 µM (inactive)	39.9 µM (inactive)	0.625 µM (active)	33 µM (inactive)	56.5 µM (inactive)	38.4 µM (inactive)	39.8 µM (inactive)	47.4 µM (inactive)	55.6 µM (inactive)	> 100 µM (inactive)	92.3 µM (inactive)	–
O=C(CC(C(=O)c1cccs1)c1ccsc1)c1ccco1 (stereo unspecified)	32.3 µM (inactive)	29.1 µM (inactive)	20.3 µM (inactive)	27.6 µM (inactive)	28 µM (inactive)	35.5 µM (inactive)	24.2 µM (inactive)	39.7 µM (inactive)	21.4 µM (inactive)	36 µM (inactive)	15.4 µM (inactive)	22.8 µM (inactive)	–	32.4 µM (inactive)	> 100 µM (inactive)	17.1 µM (inactive)	41.3 µM (inactive)	47.6 µM (inactive)	41.8 µM (inactive)
Cn1c2c3ccccc3nc-2c(O)c2ccccc21 [HYDROXYCRYPTOLEPINE]	> 100 µM (inactive)	8.91 µM (inactive)	> 100 µM (inactive)	0.735 µM (active)	34.1 µM (inactive)	48.2 µM (inactive)	59.2 µM (inactive)	> 100 µM (inactive)	> 100 µM (inactive)	> 100 µM (inactive)	–	> 100 µM (inactive)	> 100 µM (inactive)	> 100 µM (inactive)	27.7 µM (inactive)	6.52 µM (inactive)	> 100 µM (inactive)	35.4 µM (inactive)	–
